Assay results published in patent US12594228B2, “Composition for hair protection or hair strengthening” (AMOREPACIFIC CORPORATION, priority 2024, dated 2026).

Legend:
[1] = Penetration and binding in hair by confocal microscopy; conditions: fluorescent substance applied to hair, FIG. 6, FIG. 7
Description: A green fluorescent substance (FITC; Fluorescein isothiocyanate) was conjugated to palmitoyl-CWK, a tripeptide (i.e., palmitoyl tripeptide) covalently bound to palmitic acid at the N-terminus (fluorescent labeling) and applied to hair. After that, the change in hair structure that affects the increase in hair tensile strength was confirmed by comparing the colored areas using a confocal microscopy.
Meanwhile, for comparison of hair penetration routes, the water-soluble fluorescent substance 5-(4-Dimethylaminobenzylidene) rhodanine was applied to the hair, and the colored area (indicated in gray in FIG. 7) was confirmed using a confocal microscope.

[2] = Tensile strength of bleached hair tresses treated with test substance (MTT175); set-up: species or system human; conditions: test substance 0.01 wt % in purified water and ethanol (80 wt %), about 30 minutes; FIG. 4, FIG. 5
Procedure: The compositions in Table 2 above were applied to human hair to compare tensile strength.
(§1) Specifically, bleached hair tresses (1 g, manufactured by Beaulax) were prepared. The hair tresses were washed using a basic shampoo without conditioning function, rinsed for 1 minute, and dried for 2 minutes. The dried hair tresses (1 g) were immersed in 100 g of a solution in which the test substance (the mixture of Example 1 or the mixture of Comparative Example 1 in Table 2 above) was dissolved at 0.1 wt % (wherein the solution is a solution in which the test substance (0.1 wt %) is dissolved in purified water (remaining amount) for about 30 minutes. The immersed hair tresses were rinsed in running water for 1 minute and then naturally dried for more than 12 hours. Thirty hair strands were randomly selected from each hair tresses treated with the test substance. Thirty hair strands were randomly selected from the control hair tresses that were not treated with the test substance. The tensile strength of each selected hair was measured using an MTT175 (manufactured by DiaStron) device.
The tensile strength was compared by applying the test substance (the above 5 types of tripeptides) to the hair using the same method as in ‘Experimental Example 2. (1) Measurement of tensile strength’.
as §1, with “(synthesized tripeptide)” for “(the mixture of Example 1 or the mixture of Comparative Example 1 in Table 2 above)”, “0.01” for “0.1”, “(0.01” for “(0.1”, “(residue) and ethanol (80 wt %))” for “(remaining amount)”
Specifically, the tripeptide was synthesized using the same method as the peptide synthesis method of ‘Experimental Example 3’ above, but palmitic acid was added to the N-terminus of the peptide (reagents: HBTU (Hexafluorophosphate Benzotriazole), NMM (N-Methylmorpholine), DMF (Dimethylformamide), 1 hour at room temperature, concentration 0.3 M), and a tripeptide with palmitic acid covalently bonded to the N-terminus (i.e., palmitoyl tripeptide) was synthesized. After that, the test substance (tripeptide with palmitic acid covalently bonded to the N-terminus) was applied to the hair and the tensile strength was compared using the same method as in ‘Experimental Example 3. (1) Measurement of tensile strength’.

[3] = system: hair structural proteins; experiment: Denaturation enthalpy of hair structural proteins by DSC; conditions: bleached hair, test substance 0.01 wt % in purified water and ethanol (80 wt %), 30 minutes; FIG. 3
Procedure: The denaturation enthalpy of hair structural proteins was compared according to whether or not the test substance was treated using a DSC (Differential Scanning calorimetry) analyzer. DSC is used as an analysis method to confirm the stability of hair structural proteins. Damage to the hair reduces the stability of hair structural proteins and decreases the enthalpy of denaturation. Specifically, bleached hair tresses (1 g. manufactured by Beaulax) were prepared. The hair tresses were washed using a basic shampoo without a conditioning function, rinsed for 1 minute, and dried for 2 minutes. The dried hair tresses (1 g) were immersed in 100 g of a solution in which the test substance (mixture of Example 1 in Table 2 above) was dissolved at 0.01 wt % (at this time, the solution is a solution in which the mixture of Example 1 (0.01 wt %) is dissolved in purified water (residue) and ethanol (80 wt %)) for 30 minutes. The immersed hair tresses were rinsed in running water for 1 minute and then naturally dried for more than 12 hours. Each treated hair tress was cut into 1 mm lengths, placed in an aluminum high-pressure capsule with 3-5 mg of the cut hair tress and 6-15 mg of distilled water, and combined. […] The denaturation enthalpies of the prepared DSC samples were measured using a DSC (Discovery DSC 250, TA Instruments) device (50-190 degrees, 10 degrees/min).
The denaturation enthalpy was measured by the same method as in ‘Experimental Example 2. (2) Measurement of denaturation enthalpy’, but the denaturation enthalpy was compared by applying applied CWK tripeptide as a test substance to hair.
The denaturation enthalpy was measured by the same method as in ‘Experimental Example 2. (2) Measurement of denaturation enthalpy’, but the denaturation enthalpy was compared by applying a tripeptide with palmitic acid covalently bonded to the N-terminus (i.e. palmitoyl tripeptide) to hair as the test substance.

[4] = Tensile strength of heat-treated hair simulating eyebrows (Fibra.one); set-up: species or system human; conditions: hair heat-treated at 160° C. 20 times, then 0.01 wt % test substance in purified water, about 30 minutes; FIG. 9
Procedure: (§2) Specifically, since it is difficult to obtain eyebrows to be used for evaluation directly from a living body, human hair corresponding to the thickness of eyebrows was selected through Fibra.one (manufactured by DiaStron). The length was prepared to a level that can be applied to a machine measuring tensile strength. Heat-treated hair was prepared by applying pressure by hand at 160° C. 20 times with a hair straightener to the prepared human hair tresses. Hair that had not been heat-treated was prepared as a control group (untreated hair in FIGS. 9 and 11). In Experimental Example 6, the untreated hair was not treated with the test substance.
(§3) After that, the heat-treated hair tresses were treated with the test substance, KCV (KCV-treated hair in FIGS. 9 and 11). Specifically, the prepared tresses (1 g, manufactured by Beaulax) were washed using a basic cleanser without conditioning function, rinsed for 1 minute, and dried for 2 minutes. […]
Specifically, 30 hair strands were randomly selected from each tress (KCV-treated hair) treated with the test substance. […] The tensile strength of each selected hair was measured using a Fibra.one (manufactured by DiaStron).

[5] = Elasticity (horizontal resistance) of heat-treated hair simulating eyebrows; set-up: species or system human; conditions: hair heat-treated at 160° C. 20 times, then 0.01 wt % test substance in purified water, about 30 minutes; FIG. 11
Procedure: as §2, §3
The elasticity of KCV-treated hair, heat-damaged hair, and untreated hair was compared. Elasticity was defined as the horizontal resistance of hair, and elasticity was measured through each step of [Method for Measuring Hair Elasticity] below (see FIG. 10). […]

| Molecule | tensile strength of hair compared to control bleached hair tresses [2] | denaturation enthalpy of hair structural protein compared to control hair [3] | further results |
| --- | --- | --- | --- |
| CN(C)c1ccc(C=C2SC(=S)NC2=O)cc1 [5-(4-Dimethylaminobenzylidene) rhodanine] | – | – | penetration and binding in hair (colored areas) [1]: barely remained in the cuticle layer on the hair surface and did not fill the lost area of CMC inside the hair |
| CKF | significantly increased | – | – |
| CWK | significantly increased | significantly increased | – |
| KCL | significantly increased | – | – |
| KCV | significantly increased | – | tensile strength (break load) per area compared to heat-damaged hair tresses [4]: significantly increased; elasticity compared to heat-damaged hair tresses [5]: significantly increased |
| PCP [reference compound] | not significant | – | – |
| palmitoyl-CKF [pal-CKF] | significantly increased | significantly increased | – |
| palmitoyl-CWK [pal-CWK] | significantly increased | significantly increased | – |
| palmitoyl-KCV [pal-KCV] | significantly increased | significantly increased | – |
